Measurements as given in patent USRE49687E1, “Thienopyrimidine and thienopyridine compounds and methods of use thereof” (The Regents of The University of Michigan, priority 2014, dated 2023).
Where “and” joins values, the source holds several entries; their conditions need not be identical. Equal entries are not always repeated.

target: T1, menin-MLL interaction (Homo sapiens, UniProt O00255); test: Fluorescence polarization (FP) competition assay of the menin-MLL interaction; format: binding; conditions: inhibition of the menin-MLL interaction; read-out: IC50 values for Table 1 inhibitors of menin
T1 sequence (O00255 1-610): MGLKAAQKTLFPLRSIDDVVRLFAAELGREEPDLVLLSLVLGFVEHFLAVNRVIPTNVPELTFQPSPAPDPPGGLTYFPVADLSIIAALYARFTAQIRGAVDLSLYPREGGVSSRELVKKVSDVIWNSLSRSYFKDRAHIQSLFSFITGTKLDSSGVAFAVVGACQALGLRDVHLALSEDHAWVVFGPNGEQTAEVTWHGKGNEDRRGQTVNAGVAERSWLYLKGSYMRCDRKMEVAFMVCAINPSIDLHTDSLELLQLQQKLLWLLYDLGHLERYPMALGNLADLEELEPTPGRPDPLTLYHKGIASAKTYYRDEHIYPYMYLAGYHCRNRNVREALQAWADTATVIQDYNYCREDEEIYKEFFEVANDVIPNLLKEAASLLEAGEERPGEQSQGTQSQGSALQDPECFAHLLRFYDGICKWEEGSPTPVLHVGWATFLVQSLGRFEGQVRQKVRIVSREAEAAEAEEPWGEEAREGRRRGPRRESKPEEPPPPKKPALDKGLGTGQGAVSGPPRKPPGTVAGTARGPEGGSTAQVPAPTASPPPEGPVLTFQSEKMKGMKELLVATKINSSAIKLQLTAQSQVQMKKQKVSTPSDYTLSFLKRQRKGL

SMILES	IC50
CCC(=O)Nc1ccc(CCn2c(C#N)cc3c(C)c(CN4CCC(Nc5ncnc6sc(CC(F)(F)F)cc56)CC4)ccc32)cc1 [Compound 102]	< 30 nM
C=CC(=O)Nc1nc(CCn2c(C#N)cc3c(C)c(CN4CCC(Nc5ncnc6sc(CC(F)(F)F)cc56)CC4)ccc32)cs1 [Compound 34, N-(4-(2-(2-cyano-4-methyl-5-((4-((6-(2,2,2-trifluoroethyl)thieno[2,3-d]pyrimidin-4-yl)amino)piperidin-1-yl)methyl)-1H-indol-1-yl)ethyl)thiazol-2-yl)acrylamide]	30 to 100 nM
C/C=C/C(=O)N1CCN(CCn2c(C#N)cc3c(C)c(CN4CCC(Nc5ncnc6sc(CC(F)(F)F)cc56)CC4)ccc32)CC1 [Compound 4]	< 30 nM
C=CC(=O)NC1CCC(Cn2c(C#N)cc3c(C)c(CN4CCC(Nc5ncnc6sc(CC(F)(F)F)cc56)CC4)ccc32)C1 (centres unmarked) [Compound 219]	30 to 100 nM
C=CC(=O)NC1CN(CCn2c(C#N)cc3c(C)c(CN4CCC(Nc5ncnc6sc(CC(F)(F)F)cc56)CC4)ccc32)C1 [Compound 28]	30 to 100 nM
C=CC(=O)NC1CCN(CCn2c(C#N)cc3cc(CN4CCC(Nc5ncnc6sc(CC(F)(F)F)cc56)CC4)c(O)cc32)CC1 [Compound 93]	< 30 nM
C=CS(=O)(=O)Nc1ccc(CCn2c(C#N)cc3c(C)c(CN4CCC(Nc5ncnc6sc(CC(F)(F)F)cc56)CC4)ccc32)cc1 [Compound 231]	< 30 nM
C=CC(=O)N1CC2(CCN(CCn3c(C#N)cc4c(C)c(CN5CCC(Nc6ncnc7sc(CC(F)(F)F)cc67)CC5)ccc43)C2)C1 [Compound 182]	30 to 100 nM
Cc1c(CN2CCC(Nc3ncnc4sc(CC(F)(F)F)cc34)CC2)ccc2c1cc(C#N)n2CCN1CCC2(CCNC2)C1 (centres unmarked) [Compound 171]	30 to 100 nM
C=CC(=O)N[C@@H]1CCN(CCn2c(C#N)cc3c(C)c(CN4CCC(Nc5ncnc6sc(CC(F)(F)F)cc56)CC4)ccc32)C1 [Compound 32]	< 30 nM
C=CS(=O)(=O)N1C2CCC1CN(CCn1c(C#N)cc3c(C)c(CN4CCC(Nc5ncnc6sc(CC(F)(F)F)cc56)CC4)ccc31)C2 [Compound 23]	< 30 nM
C=CC(=O)N1CC2CN(CCn3c(C#N)cc4c(C)c(CN5CCC(Nc6ncnc7sc(CC(F)(F)F)cc67)CC5)ccc43)CC2C1 (centres unmarked) [Compound 168]	30 to 100 nM
C=CC(=O)N1CCN(CCCn2c(C#N)cc3cc(CN4CCC(Nc5ncnc6sc(CC(F)(F)F)cc56)CC4)ccc32)CC1 [Compound 2]	30 to 100 nM
[2H]C([2H])=C([2H])C(=O)Nc1ccc(CCn2c(C#N)cc3c(C)c(CN4CCC(Nc5ncnc6sc(CC(F)(F)F)cc56)CC4)ccc32)cc1 [Compound 241]	30 to 100 nM
C=CC(=O)N1CCC2(CCN(CCn3c(C#N)cc4c(C)c(CN5CCC(Nc6ncnc7sc(CC(F)(F)F)cc67)CC5)ccc43)C2)C1 (centres unmarked) [Compound 172]	30 to 100 nM
Cc1c(CN2CCC(Nc3ncnc4sc(CC(F)(F)F)cc34)CC2)ccc2c1cc(C#N)n2CCN1CC2CNCC2C1 (centres unmarked) [Compound 167]	< 30 nM
Cc1c(CN2CCC(Nc3ncnc4sc(CC(F)(F)F)cc34)CC2)ccc2c1cc(C#N)n2CCc1cccc(N)c1 [Compound 189]	30 to 100 nM
Cc1c(CN2CCC(Nc3ncnc4sc(CC(F)(F)F)cc34)CC2)ccc2c1cc(C#N)n2CCc1ccc(P(C)(C)=O)cc1 [Compound 202]	30 to 100 nM
C=CC(=O)Nc1ccc(C(O)Cn2c(C#N)cc3c(C)c(CN4CCC(Nc5ncnc6sc(CC(F)(F)F)cc56)CC4)ccc32)cn1 (centres unmarked) [Compound 112]	< 30 nM
C=CC(=O)NC1CCN(CCn2c(C#N)cc3c(C)c(CN4CCC(Nc5ncnc6sc(CC(F)(F)F)cc56)CC4)ccc32)C1 (centres unmarked) [Compound 29]	< 30 nM
C=CS(=O)(=O)N1CC2CCC(C1)N2CCn1c(C#N)cc2c(C)c(CN3CCC(Nc4ncnc5sc(CC(F)(F)F)cc45)CC3)ccc21 [Compound 18]	< 30 nM and 30 to 100 nM
CCC(=O)Nc1ccc(C(C)(O)Cn2c(C#N)cc3c(C)c(CN4CCC(Nc5ncnc6sc(CC(F)(F)F)cc56)CC4)ccc32)cn1 (centres unmarked) [Compound 212]	30 to 100 nM
C=CC(=O)Nc1ccc(C(O)Cn2c(C#N)cc3c(C)c(CN4CCC(Nc5ncnc6sc(CC(F)(F)F)cc56)CC4)ccc32)cc1 (centres unmarked) [Compound 101]	< 30 nM
